# Key:
# [1] = target: organophosphate hydrolase (Brevundimonas diminuta, UniProt P0A434); conditions: cited from earlier work
# [2] = test system: organophosphate hydrolase; type: biochemical; conditions: 0.5 mM amiprophos-methyl, 2 μg organophosphate hydrolase, scans every 30 seconds
# [3] = test system: maize callus; type: cell-based
# [4] = test system: organophosphate hydrolase in maize callus; assay: Coumaphos plate screen: fluorescence of maize callus under ultraviolet light; type: cell-based; conditions: 3 ml of 1 mg/ml coumaphos per plate, two days post-transfer
# [5] = test system: transgenic OPH and control callus cells; assay: Growth of callus cultures on haloxon plates (prospective Example 9, FIG. 6); type: cell-based; conditions: haloxon 1, 5, 10, 50, 100 and 500 μM, six weeks, percentage growth compared to control
Compound,rate of hydrolysis by organophosphate hydrolase compared with strong alkaline / non-enzymatic hydrolysis [1],effect on new growth from maize callus [3],also measured
COP(=O)(NC(C)=O)SC (stereo not drawn) [acephate],thousands of times greater,,
COP(=S)(NC(C)C)Oc1ccc(C)cc1[N+](=O)[O-] (stereo not drawn) [amiprophos-methyl],,inhibitory effect,"cleavage by organophosphate hydrolase, detected by absorbance [2]: results in the absorbance of light"
CCOP(=S)(OCC)Oc1ccc2c(C)c(Cl)c(=O)oc2c1 [coumaphos],,inhibitory effect,fluorescence of non-transformed callus under ultraviolet light ([4]; non-transformed callus): did not; fluorescence of transformed callus under ultraviolet light ([4]; transformed callus): fluoresced
Cc1c(Cl)c(=O)oc2cc(OP(=O)(OCCCl)OCCCl)ccc12 [haloxon],,,growth of transgenic OPH cells versus control cultures [5]: ability of the transgenic OPH cells to grow at concentrations where control cultures would not
CCOC(=O)CC(SP(=S)(OC)OC)C(=O)OCC (stereo not drawn) [malathion],significantly better,,capability of the enzyme for hydrolysis [1]: poor capability
CCOP(=S)(OCC)SCn1c(=O)oc2cc(Cl)ccc21 [phosalone],thousands of times greater,,
CCCOP(=S)(OCCC)SCC(=O)N1CCCCC1C (stereo not drawn) [piperophos],,inhibitory effect,
demeton-S-methyl,thousands of times greater,,

# From US7060501B2 (priority 2002, dated 2006)
